Values joined by “and” are separate entries in the source; they are usually repeats but may differ in a detail not shown here. Identical values can stand only once. Like-named read-outs stand apart in the source and are kept apart here. Blank lines part the entries; values can stand above or below the compound they belong to.
Key:
[1] = Estimation of solubility: minimum solvent needed to dissolve a known amount; format: physicochemical; conditions: for Solubility (amount of solid in mL of solvent): sodium trihydrate
Description: The solubility of the topiramate sodium trihydrate prepared in this example in water, ethanol, methanol, and THF was estimated by determining the minimum amount of solvent necessary to dissolve a known amount of the compound. In general, a predetermined amount of the compound was placed in a small glass vial, and then solvent was added drop-wise at room temperature until no visible solid remained in the vial.

[2] = pH of an aqueous solution (pH meter); format: physicochemical; conditions: 400 mg/mL solution in distilled water
[3] = Dissolution curves in 0.01 N HCl; format: physicochemical; conditions: for state at the end of the dissolution experiment: nominal about 110 mM (37 mg/mL free acid concentration)
Description: FIG. 6 provides results of a comparison between the aqueous solubility of topiramate sodium trihydrate with that of topiramate. […] Independently, a set of dissolution curves were obtained in 0.01 N HCl (representative of a modestly acidic stomach), and these are shown in FIG. 7.

[4] = Physical stability by TGA and PXRD at preset temperature and relative humidity; format: physicochemical; conditions: for Physical stability result (solid form): 2 weeks
Description: A further study on physical stability of a sample from this example was conducted in glass vials at preset temperatures and controlled relative humidities. The humidities stored at room temperature were controlled using saturated salt solutions (see H. Nyquist, Pharm. Tech. 4(2):47-48 (1983)). At other temperatures, the oven configurations allowed humidity control. After 2 weeks, samples at various conditions were tested by TGA and PXRD to assess whether the crystalline topiramate sodium trihydrate remained intact or not. The data in Table 3 summarize findings after 2 weeks of incubation.

[5] = Chemical stability by HPLC analysis of stored samples; format: physicochemical
[6] = Oral pharmacokinetics in rats, capsules by gavage, plasma by LC/MS/MS; format: in vivo, male Sprague-Dawley rats; conditions: rat
[7] = cited from earlier work
[8] = in vivo; cited from earlier work
[9] = test system: kindled seizures; conditions: rats; cited from earlier work
[10] = nominal concentration about 110 mM

solubility ([1]; THF, room temperature (slight overestimate), read-out: Solubility (amount of solid in mL of solvent)): 44.2 mg/mL | solubility ([1]; ethanol, room temperature, read-out: Solubility (amount of solid in mL of solvent)): 376 mg/mL | solubility ([1]; methanol, room temperature, single trials, read-out: Solubility (amount of solid in mL of solvent)): 1280 mg/mL | Solubility (amount of solid in mL of solvent) ([1]; methanol, room temperature, single trials): 1600 mg/mL and 1530 mg/mL | solubility ([1]; methanol, room temperature, read-out: Average Solubility): 1470 mg/mL | aqueous solubility relative to topiramate ([1]; vs. literature value of […]): over 100 times | solubility ([1]; water, FIG. 6, read-out: aqueous solubility): 1300 mg/mL | solubility ([1]; water, room temperature, single trials, read-out: Solubility (amount of solid in mL of solvent)): 1240 mg/mL | Solubility (amount of solid in mL of solvent) ([1]; water, room temperature, single trials): 1435 mg/mL | solubility ([1]; water, room temperature, read-out: Average Solubility): 1330 mg/mL | pH of solution [2]: about 11.2 | solubility at the equilibrium condition relative to (1) and (3) [3]: increased solubility | state at the end of the dissolution experiment ([3]; listed as topiramate sodium salt trihydrate, sodium trihydrate): not saturated | pH at the equilibrium condition [3, 10]: 9.5 | Physical stability result (solid form) ([4]; 5 °C, ambient RH (refrigerated)): Trihydrate | Physical stability result (solid form) ([4]; 25 °C, 31% RH): Trihydrate | Physical stability result (solid form) ([4]; 25 °C, 75% RH): Trihydrate | Physical stability result (solid form) ([4]; 25 °C, <5% RH): Trihydrate & some amorphous | Physical stability result (solid form) ([4]; 40 °C, 75% RH): Trihydrate | Physical stability result (solid form) ([4]; 40 °C, ambient RH (<20)): Trihydrate | Physical stability result (solid form) ([4]; 60 °C, ambient RH (<10)): Amorphous | Physical stability result (solid form) ([4]; 80 °C, ambient RH (<5)): Amorphous | temperature up to which the hydrate stays intact ([4]; by TGA): ≤ 40 °C | chemical degradation by HPLC ([5]; 2 weeks at 25° C./<5% RH, 25° C./31% RH, 25° C./75% RH, 40° C./ambient RH, or 40° C./75% RH): No chemical degradation | chemical degradation by HPLC ([5]; >12 weeks at 25° C./<5% RH, 25° C./31% RH, 25° C./75% RH, or 40° C./75% RH): No chemical degradation | chemical degradation by HPLC ([5]; stored at or above 60° C. for at least 2 weeks): Degradates were observed | Tmax ([6]; male, Sprague-Dawley, plasma, oral capsule, 30 mg/kg free topiramate equivalent, first time point, read-out: time of peak plasma concentration (tmax)): 30 min
SMILES: CC1(C)O[C@@H]2[C@@H](CO[C@@]3(COS(N)(=O)=O)OC(C)(C)O[C@@H]23)O1 [topiramate sodium trihydrate]
plasma profile, comparison in words ([6]; oral, 30 mg/kg, FIG. 10): comparable to an oral solution of TOPAMAX®

state at the end of the dissolution experiment ([3]; listed as topiramate crystal form): remained as suspensions | time at which dissolution was essentially complete [3, 10]: 5 min
SMILES: CC1(C)O[C@@H]2[C@@H](CO[C@@]3(COS(N)(=O)=O)OC(C)(C)O[C@@H]23)O1 [topiramate, 2,3:4,5-Di-O-isopropylidene-β-D-fructopyranose sulfamate]
solubility in acetone, chloroform, dimethylsulfoxide, and ethanol [7]: freely soluble | time to reach peak plasma levels [8]: about two | blocking kindled seizures [9]: effective in blocking kindled seizures

Reference: patent US7351695B2, “Topiramate salts and compositions comprising and methods of making and using the same” (Ortho-McNeil Pharmaceuticals, Inc., priority 2002, dated 2008)
